Results published in US6716831B1, “2,4-diamino-pyrimidine deprivatives having anti-cell proliferative activity” (AstraZeneca AB, priority 1999, dated 2004).
pIC50: −log10 of the molar value.

Molecular target: T1, human Focal Adhesion Kinase (FAK) (Homo sapiens, UniProt Q05397)
T1 construct: FAK (full length human cDNA described by Andre et al); 6-histidine tag (N); made in house; host or cells: Sf21 insect cells (baculovirus, pFastbac 1)
Assay: FAK3 Kinase Inhibition Assay
Type: biochemical
Details: in vitro enzyme assay, Poly (Glu, Ala, Tyr) substrate; read-out: FAK inhibitory activity IC50
Text: FAK3 Kinase Inhibition Assay
This assay determines the ability of a test compound to inhibit tyrosine kinase activity of human Focal Adhesion Kinase (FAK).
DNA encoding FAK is obtained by total gene synthesis (Edwards M, International Biotechnology Lab 5(3), 19-25, 1987) or by cloning. These are then expressed in a suitable expression system to obtain polypeptide with tyrosine kinase activity.
Active FAK protein has been previously expressed in a baculovirus system using a similar N-terminal 6-histidine tag (Protein Expression And Purification, 1996, 7: 12-18). The human FAK cDNA was cloned into the baculovirus transplacement vector, pFastbac 1 (Life Technologies), and the recombinant construct was co-transfected into insect cells (for example Spodoptera frugiperda 21(Sf21)) with viral DNA to prepare recombinant baculovirus (details of the methods for the assembly of recombinant DNA molecules and the preparation and use of recombinant baculovirus can be found in standard texts for example Sambrook et al, 1989, Molecular cloning—A Laboratory Manual, 2nd edition, Cold Spring Harbour Laboratory Press and O'Reilly et al, 1992, Baculovirus Expression Vectors—A Laboratory Manual, W.H. Freeman and Co, New York. Details specific to the use of the pFastbac (‘Bac to Bac’) system are provided in Anderson et al., 1995, FOCUS (Life Technologies Bulletin Magazine), 17, p53.) […]

T1 sequence (Q05397 whole entry): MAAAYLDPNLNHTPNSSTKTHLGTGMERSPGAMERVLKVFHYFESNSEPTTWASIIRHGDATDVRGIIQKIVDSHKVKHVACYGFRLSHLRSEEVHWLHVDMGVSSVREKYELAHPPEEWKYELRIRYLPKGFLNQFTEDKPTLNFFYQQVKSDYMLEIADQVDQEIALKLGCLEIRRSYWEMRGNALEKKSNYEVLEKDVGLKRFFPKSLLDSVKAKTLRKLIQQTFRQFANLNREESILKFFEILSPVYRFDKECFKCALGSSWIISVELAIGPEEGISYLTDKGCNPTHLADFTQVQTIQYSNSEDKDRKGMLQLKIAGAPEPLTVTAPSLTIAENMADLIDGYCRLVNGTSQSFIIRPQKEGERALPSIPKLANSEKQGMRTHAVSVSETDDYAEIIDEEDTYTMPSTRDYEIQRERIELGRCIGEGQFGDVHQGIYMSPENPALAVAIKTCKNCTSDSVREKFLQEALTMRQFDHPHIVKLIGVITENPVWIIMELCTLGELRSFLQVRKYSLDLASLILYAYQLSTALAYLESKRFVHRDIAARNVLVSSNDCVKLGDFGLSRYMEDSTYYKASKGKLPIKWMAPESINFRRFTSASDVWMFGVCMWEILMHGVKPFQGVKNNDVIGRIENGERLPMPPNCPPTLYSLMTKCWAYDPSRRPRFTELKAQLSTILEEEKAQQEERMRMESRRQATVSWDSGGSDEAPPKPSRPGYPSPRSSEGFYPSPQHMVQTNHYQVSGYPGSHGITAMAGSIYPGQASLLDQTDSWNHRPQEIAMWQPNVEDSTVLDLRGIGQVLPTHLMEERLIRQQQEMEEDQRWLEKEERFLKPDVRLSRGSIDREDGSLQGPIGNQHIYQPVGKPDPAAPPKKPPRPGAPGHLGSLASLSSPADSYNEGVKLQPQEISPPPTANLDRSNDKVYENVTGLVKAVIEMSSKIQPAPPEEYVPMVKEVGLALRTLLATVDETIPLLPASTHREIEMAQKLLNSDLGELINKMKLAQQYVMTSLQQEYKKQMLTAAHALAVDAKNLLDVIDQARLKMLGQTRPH

CN(C)CC(O)COc1ccc(Nc2nccc(N3CCc4cc(Br)ccc43)n2)cc1 (stereo not shown) [Example 3]
pIC50: 6.26
